Reference: patent US20080200544A1, “Oil agent and lubricant agent, moisturizer and external preparation composition containing the same” (priority 2007, published 2008)
Counter-ions that a name gives are not always drawn.

What was measured:
[1] = Viscosity, Brookfield viscometer DV-II+ (Spindle No. 2, 12 rpm, 25° C.); format: physicochemical; settings: for Viscosity: 25° C.; for Feeling of use: class assigned from viscosity at 25° C.
Method: In this specification, “viscosity” refers to a value of viscosity measured using a Brookfield viscometer DV-II+ (Spindle No. 2, 12 rpm, 25° C.).
In these examples, viscosity was measured using a Brookfield viscometer DV-II+ (Spindle No. 2, 12 rpm, 25° C.).

[2] = Oil solubility evaluation in KAK99; settings: in KAK99 (isononyl isononanoate)
[3] = Water solubility evaluation; settings: in water

| Compound | Viscosity [1] [mPa · s] | Oil solubility [2] | Feeling of use [1] | Water solubility [3] |
| --- | --- | --- | --- | --- |
| CCOCCOCCOC(=O)C(O)C(O)C(=O)OCCOCCOCC (stereo not drawn) [Example 4, dicarbitol tartrate] | 207 |  |  |  |
| CCOCCOCCOCCOC(=O)CCC(=O)OCCOCCOCCOCC [Example 5, di(triethylene glycol monoethyl ether) succinate] | 32.5 | Δ (Dissolved in KAK99 up to 5% by mass) |  |  |
| CCOCCOCCOC(=O)CCCCC(=O)OCCOCCOCC [Example 3, dicarbitol adipate] | 20 |  | light |  |
| CCOCCOCCOC(=O)CCC(=O)OCCOCCOCC [Example 1, dicarbitol succinate] | 12.5 |  | light |  |
| CCOCCOCCOC(=O)CC(O)C(=O)OCCOCCOCC (stereo not drawn) [Example 2, dicarbitol malate] | 45 | Δ (Dissolved in KAK99 up to 5% by mass) |  | ◯ (Dissolved in water up to 10% by mass) |
| CCOCCOC(=O)CCC(=O)OCCOCC [Example 6, di(monoethylene glycol monoethyl ether) succinate] | 10.0 |  | light | Δ (Dissolved in water up to 5% by mass) |
| dicarbitol isononanoate [compound 1, reference compound] | 5 |  | light |  |
